Assay results as given in patent publication US20220281848A1, “PYRAZOLE-SUBSTITUTED PYRROLIDINONES AS HERBICIDES” (FMC Corporation, priority 2019, published 2022).

Legend:
Format in all cases: in vivo
[1] = tested on: barnyardgrass (Echinochloa crus-galli, ECHCG); assay: Test A pre-emergence, barnyardgrass; conditions: after 13 d
How it was run: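 After sowing in pots and a single day of glasshouse cultivation, the soil was treated with an aqueous spray of the compound (acetone/water 50:50, 0.5% Tween 20) giving 15.625, 62.5 or 250 g/ha. Evaluation after 13 d used a scale where 0 meant no damage and 100 total damage.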

[2] = tested on: corn (Zea mays, ZEAMX); assay: Test A post-emergence, corn; conditions: after 13 d
How it was run: (§1)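 Foliar application to 8-day-old seedlings at 15.625, 62.5 or 250 g/ha; phytotoxicity scored 0–100 after 13 d.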

[3] = tested on: barnyardgrass (Echinochloa crus-galli, ECHCG); assay: Test A post-emergence, barnyardgrass; conditions: after 13 d
How it was run: as §1

[4] = tested on: maize; assay: Test D pre-emergence, maize seed treated with a herbicide safener; conditions: ZEAMX, preemergent, 20 DAA
How it was run: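 Herbicidal injury on safener-protected cereals: application timings were one day after sowing for pre-emergence and about 12 days of cultivation for post-emergence. Assessment came 20 DAA or 15 d later respectively, on a scale where 100 meant total damage.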

[5] = tested on: plants; assay: Test D post-emergence, other plants of Tables D2 and D4; conditions: "Cereals" Postemergent, evaluated after 15 d
How it was run: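 Seeds treated with herbicide safener; sown in soil; glasshouse, 16 h light, 65% humidity. Sprayed day 1 (pre) or ~day 12 (post). Spray in 0.2% v/v adjuvant. Scored 0–100 damage: 20 DAA pre, 15 d post.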

CN1CC(c2cc(C(F)(F)F)n(C)n2)C(C(=O)Nc2ccc(F)c(F)c2F)C1=O (racemic) [Compound 17]
damage to plant (100=total damage; 0=no damage) ECHCG ([1]; Pre-Emergence at 15.625 g/ha): 90
damage to plant (100=total damage; 0=no damage) ECHCG ([1]; Pre-Emergence at 62.5 g/ha): 100
damage to plant (100=total damage; 0=no damage) ECHCG ([1]; Pre-Emergence at 250 g/ha): 100
damage to plant (100=total damage; 0=no damage) ZEAMX ([2]; Post-Emergence at 15.625 g/ha): 10
damage to plant (100=total damage; 0=no damage) ZEAMX ([2]; Post-Emergence at 62.5 g/ha): 50
damage to plant (100=total damage; 0=no damage) ZEAMX ([2]; Post-Emergence at 250 g/ha): 80
damage to plant (100=total damage; 0=no damage) ECHCG ([3]; Post-Emergence at 15.625 g/ha): 60
damage to plant (100=total damage; 0=no damage) ECHCG ([3]; Post-Emergence at 62.5 g/ha): 70
damage to plant (100=total damage; 0=no damage) ECHCG ([3]; Post-Emergence at 250 g/ha): 80
damage to plant (100=total damage to plant; 0=no damage to plant), ZEAMX ([4]; rate 15): 0
damage to plant (100=total damage to plant; 0=no damage to plant), ZEAMX ([4]; rate 30): 0
damage to plant (100=total damage to plant; 0=no damage to plant), ZEAMX ([4]; rate 60): 0
damage to plant (100=total damage to plant; 0=no damage to plant), ZEAMX ([4]; rate 130): 0
damage to plant (100=total damage to plant; 0=no damage to plant), ZEAMX ([4]; rate 250): 10
damage to plant (100=total damage to plant; 0=no damage to plant), ZEAMX ([4]; rate 500): 30
ALOMY damage rating (100=total damage to plant; 0=no damage to plant) ([5]; Rates 130): 30
ALOMY damage rating (100=total damage to plant; 0=no damage to plant) ([5]; Rates 250): 50
ALOMY damage rating (100=total damage to plant; 0=no damage to plant) ([5]; Rates 500): 70
AVEFA damage rating (100=total damage to plant; 0=no damage to plant) ([5]; Rates 130): 0
AVEFA damage rating (100=total damage to plant; 0=no damage to plant) ([5]; Rates 250): 30
AVEFA damage rating (100=total damage to plant; 0=no damage to plant) ([5]; Rates 500): 60
BEAVA damage rating (100=total damage to plant; 0=no damage to plant) ([5]; Rates 130): 10
BEAVA damage rating (100=total damage to plant; 0=no damage to plant) ([5]; Rates 250): 20
BEAVA damage rating (100=total damage to plant; 0=no damage to plant) ([5]; Rates 500): 20
BROTE damage rating (100=total damage to plant; 0=no damage to plant) ([5]; Rates 130): 0
BROTE damage rating (100=total damage to plant; 0=no damage to plant) ([5]; Rates 250): 10
BROTE damage rating (100=total damage to plant; 0=no damage to plant) ([5]; Rates 500): 20
BRSNN damage rating (100=total damage to plant; 0=no damage to plant) ([5]; Rates 130): 0
BRSNN damage rating (100=total damage to plant; 0=no damage to plant) ([5]; Rates 250): 20
BRSNN damage rating (100=total damage to plant; 0=no damage to plant) ([5]; Rates 500): 20
CHEAL damage rating (100=total damage to plant; 0=no damage to plant) ([5]; Rates 130): 0
CHEAL damage rating (100=total damage to plant; 0=no damage to plant) ([5]; Rates 250): 60
CHEAL damage rating (100=total damage to plant; 0=no damage to plant) ([5]; Rates 500): 50
GALAP damage rating (100=total damage to plant; 0=no damage to plant) ([5]; Rates 130): 0
GALAP damage rating (100=total damage to plant; 0=no damage to plant) ([5]; Rates 250): 40
GALAP damage rating (100=total damage to plant; 0=no damage to plant) ([5]; Rates 500): 30
HORVW damage rating (100=total damage to plant; 0=no damage to plant) ([5]; Rates 130): 10
HORVW damage rating (100=total damage to plant; 0=no damage to plant) ([5]; Rates 250): 40
HORVW damage rating (100=total damage to plant; 0=no damage to plant) ([5]; Rates 500): 80
KCHSC damage rating (100=total damage to plant; 0=no damage to plant) ([5]; Rates 130): 0
KCHSC damage rating (100=total damage to plant; 0=no damage to plant) ([5]; Rates 250): 0
KCHSC damage rating (100=total damage to plant; 0=no damage to plant) ([5]; Rates 500): 20
LOLPE damage rating (100=total damage to plant; 0=no damage to plant) ([5]; Rates 130): 0
LOLPE damage rating (100=total damage to plant; 0=no damage to plant) ([5]; Rates 250): 30
LOLPE damage rating (100=total damage to plant; 0=no damage to plant) ([5]; Rates 500): 60
POAAN damage rating (100=total damage to plant; 0=no damage to plant) ([5]; Rates 130): 60
POAAN damage rating (100=total damage to plant; 0=no damage to plant) ([5]; Rates 250): 80
POAAN damage rating (100=total damage to plant; 0=no damage to plant) ([5]; Rates 500): 90
POLCO damage rating (100=total damage to plant; 0=no damage to plant) ([5]; Rates 130): 0
POLCO damage rating (100=total damage to plant; 0=no damage to plant) ([5]; Rates 250): 0
POLCO damage rating (100=total damage to plant; 0=no damage to plant) ([5]; Rates 500): 10
